Assay results from patent publication US20260250318A1, “COMPOSITIONS AND METHODS FOR CROSSING THE BLOOD BRAIN BARRIER” (VOYAGER THERAPEUTICS, INC., priority 2022, published 2026).

tested on: brain; assay: Maturation of TTM-001 capsid, NGS enrichment in brain of CD-1 Outbred mice; type: in vivo; conditions: NGS fold-enrichment of TTM-001 matured AAV capsid variants in the brain of CD-1 Outbred mice; intravenous 1.0×10^12 VG/dose; 14 days in life; RNA; relative to non-matured TTM-001 control
Summary of the method: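 Brain enrichment read by NGS after RNA extraction and RT-PCR, expressed as fold ratio over the matching parental capsid (TTM-001 or TTM-002). Libraries, mutated around loop IV positions 449/450–466, were injected intravenously (tail vein, 1.0×10^12 VG/dose) into three female CD-1 mice; brains harvested at 14 days.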

Sequence	Fold enrichment over TTM-001
KTINGSGSPHSKMRPQQT	2.652 fold
KTINGSGSPHSKASRQQT	2.197 fold
KTINGHSSPHRKAQNQQT	2.639 fold
KTINGSGSPHSKGVRQQT	2.115 fold
KTINGRSSPHPKAQNQQT	2.596 fold
KTINGSGSPHSKAQFSVT	2.015 fold
KTINGSGSPHSKRVPQQT	3.048 fold
KTINGSGSPHSMLYNQQT	2.808 fold
KTLRRSGSPHSKAQNQQT	2.117 fold
KTINGSGSPHSKARSKQT	2.758 fold
KTINGSGSPHSRLFNQQT	2.542 fold
KTINGSCSPHRKAQNQQT	4.801 fold
KTINGSGSPHSLYLNQQT	3.264 fold
KTINGSGSPHLYGQNQQT	2.277 fold
KTINGSGSPHLVFQNQQT	2.376 fold
KTINGSGSPHSKLLRQQT	2.981 fold
KTINGSGSPHMYAQNQQT	2.060 fold
KTINGSGSPHSKQRVQQT	2.117 fold
KTINGSGSPHSKAQWLRT	2.795 fold
KTINGSGSPHCLAQNQQT	4.847 fold
KTINGSRSPHFKAQNQQT (peptide inserted in AAV capsid)	2.277 fold
KTINGRPSPHVKAQNQQT	2.419 fold
KTINGSGSPHSKLVRQQT	2.801 fold

Sequence	Fold enrichment over TTM-001
KTINGSGSPHSKACASQT	2.775 fold
KTINGSTSPHRRAQNQQT (peptide inserted in AAV capsid)	3.089 fold
KTINGSGSPHSLFANQQT	2.365 fold
KTINGSGSPHSVYLNQQT	4.426 fold
KTINGSGSPHSSRRNQQT	4.920 fold
KTINGFLSPHRKAQNQQT	2.654 fold
KTINGSGSPHSKCLTQQT	2.644 fold
KTINGSRSPHRPAQNQQT (peptide inserted in AAV capsid)	2.061 fold
KRSKGSGSPHSKAQNQQT	2.030 fold
KTINGSGSPHSFLLNQQT	2.341 fold
KTINGSGSPHSKAQLVKT	2.376 fold
KTINGSGSPHSKAQSRRT	3.372 fold
KTINGSLSPHYMAQNQQT	2.015 fold
KTINGSGSPHSKATRHQT	2.777 fold
KTINGSGSPHSRSRNQQT	3.784 fold
KTINGSGSPHSKRATQQT	2.283 fold
KTINGSGSPHSKACSAQT	2.754 fold
KTINGSTSPHLFAQNQQT (peptide inserted in AAV capsid)	2.041 fold
KPRLGSGSPHSKAQNQQT	2.406 fold
KTINGSRSPHVRAQNQQT (peptide inserted in AAV capsid)	2.412 fold
KTINGSGSPHSTRPNQQT	2.598 fold
KTINGSGSPHSKASKNQT	2.171 fold
KTINGSGSPHTWSQNQQT	2.011 fold

Sequence	Fold enrichment over TTM-001
KTINGSGSPHSKAVRAQT	2.538 fold
KTINGSGSPHSKAQFSLT	2.000 fold
KTINGSGSPHSKAQIRLT	3.279 fold
KTINGSGSPHSKRFLQQT	3.359 fold
KTINGSCSPHSGAQNQQT	2.994 fold
KTINGSGSPHSKAQAFRT	2.022 fold
KTINGSGSPHSYLLNQQT	2.147 fold
KTINGSGSPHSKALRSQT	2.648 fold
KTINGSGSPHSKARMAQT	2.488 fold
KTINGSGSPHRRRQNQQT	3.754 fold
KTINGSGSPHSKAHRLQT	2.603 fold
KTINGLRSPHSKAQNQQT	2.238 fold
KTINGSGSPHSKAQFVLT	2.006 fold
KQPLGSGSPHSKAQNQQT	2.024 fold
KTINGSGSPHSSLWNQQT	3.179 fold
KTINGSGSPHSLRHNQQT	2.980 fold
KTINGSRSPHYKAQNQQT (peptide inserted in AAV capsid)	2.879 fold
KTINGSGSPHSKVPKQQT	2.924 fold
KTINGSGSPHRFKQNQQT	2.223 fold
KTINGRRSPHLKAQNQQT	2.391 fold
KTINGSGSPHSKAGRGQT	2.058 fold
KTINGSMSPHRKAQNQQT	2.251 fold
KTINGSCSPHSLAQNQQT	2.099 fold

Sequence	Fold enrichment over TTM-001
KTINGSGSPHSKAQVWFT	2.181 fold
KTINGSGSPHSKARYSQT	2.369 fold
KTINGRQSPHAKAQNQQT	2.026 fold
KTINGSRSPHLFAQNQQT (peptide inserted in AAV capsid)	3.601 fold
KTINGSPSPHRKAQNQQT	2.430 fold
KTINGSGSPHSKCTLQQT	2.808 fold
KTINGSGSPHSFITNQQT	2.868 fold
KTINGSGSPHSKAQFVRT	2.596 fold
KTINGSRSPHRRAQNQQT (peptide inserted in AAV capsid)	2.615 fold
KTINGSGSPHSKGIRQQT	2.497 fold
KTINGSGSPHSKAQNYRA	2.039 fold
KEVGGSGSPHSKAQNQQT	2.358 fold
KTINGSGSPHSRRLNQQT	3.251 fold
KTINGSGSPHSPLWNQQT	2.562 fold
KTINGSGSPHSLLYNQQT	2.158 fold
KTINGSGSPHSKAQNKRS	2.214 fold
KTINGSGSPHSKCLSQQT	2.052 fold
KEVMGSGSPHSKAQNQQT	2.047 fold
KTINGRPSPHIKAQNQQT	2.155 fold
KTINGSGSPHSKPRVQQT	2.441 fold
KTINGSGSPHSKAFTRQT	2.518 fold
KTINGILSPHRKAQNQQT	2.475 fold
KTINGSGSPHSKARANQT	2.300 fold

Sequence	Fold enrichment over TTM-001
KTINGSGSPHSRKQNQQT	2.162 fold
KTINGSGSPHSKTNRQQT	2.169 fold
KPPTGSGSPHSKAQNQQT	2.270 fold
KTINGSLSPHSCAQNQQT	3.268 fold
KTINGSGSPHRLRQNQQT	2.998 fold
KTINGSGSPHSKAQFLRT	2.156 fold
KELVGSGSPHSKAQNQQT	2.019 fold
KTINGSGSPHSKAQLAKT	2.238 fold
KTINGSGSPHSKRTAQQT	2.331 fold
KTINGSGSPHSKAQNSRR	3.168 fold
KTINGYSSPHRKAQNQQT	2.007 fold
KTINGSGSPHSKRSNQQT	2.886 fold
KTINGRKSPHSKAQNQQT	2.985 fold
KTINGSGSPHLLYQNQQT	2.983 fold
KTSRCSGSPHSKAQNQQT	2.345 fold
KTINGSGSPHSKRLRQQT	5.034 fold
KTINGLTSPHRKAQNQQT	2.663 fold
KTINGSGSPHSKAQCRLT	2.304 fold
KTINGSGSPHTWTQNQQT	2.045 fold
KTINGSGSPHSKAWILQT	2.004 fold
KTINGSGSPHLLWQNQQT	3.855 fold
KTINGRRSPHTKAQNQQT	2.069 fold
KTINGSGSPHSKPRSQQT	2.235 fold

Sequence	Fold enrichment over TTM-001
KTINGSGSPHSKAVRNQT	2.516 fold
KTINGSGSPHSKAQLVVT	3.654 fold
KTINGPLSPHRKAQNQQT	2.028 fold
KTINGSGSPHSKAQITLT	3.177 fold
KTINGSGSPHSKTGRQQT	2.259 fold
KTINGSGSPHSVSWNQQT	2.223 fold
KTINGSGSPHSLLWNQQT	7.983 fold
KTINGSGSPHSKAQNTRR	2.013 fold
KTINGSGSPHSKRPFQQT	2.076 fold
KTINGSGSPHFLNQNQQT	2.359 fold
KTINGSGSPHRTRQNQQT	3.190 fold
KTINGSCSPHPLAQNQQT	3.086 fold
KTINGSGSPHSKAQKRLT	3.872 fold
KTINGSGSPHSTWTNQQT	2.307 fold
KTINGSGSPHSKVGRQQT	3.255 fold
KTINGSGSPHSKHLRQQT	3.438 fold
KTINGSGSPHSKASRHQT	2.324 fold
KTINGSGSPHSFRLNQQT	2.158 fold
KTINGSGSPHSKAQSVKT	2.464 fold
KTINGSGSPHSKARLAQT	2.007 fold
KTINGSGSPHSKTCSQQT	2.430 fold
